According to patent US20260335323A1, “CHIMERIC MOLECULE” (UCL Business Ltd, priority 2023, published 2026):

Key:
Format in all cases: cell-based, human
[1] = system: MAX; assay: Western blot, MAX levels in CAL51 cells; details: 100 nM, 72 hours
Procedure: All treatments with (+)-JQ1, NZ-147 or NZ-175 were performed at 100 nM concentration over 72 hours.
Cells were homogenised in protein lysis buffer consisting of 0.1 M Tris pH 8.0, 0.1 M NaCl, 5% glycerol, IGEPAL® CA-630 (#18896. Sigma-Aldrich) and 5 mM EDTA, 0.1 M N-ethyl maleimide (ThermoFisher, #23030) and protease inhibitor (Cell Signalling Technologies, #5871). Protein concentrations were determined using the BCA assay to ensure equal loading. […] The membranes were immunoblotted with primary antibodies, overnight at 4° C. […]
Membranes were then incubated with horseradish peroxidase (HRP)-conjugated secondary antibodies (Rabbit #7074 and Mouse #7076) purchased from Cell Signalling Technologies for 1 hour and the HRP signal was detected using EZ-ECL Enhanced Chemiluminescence Detection Kit for HRP (#20-500-500, Sartorius), and imaged with an Alliance Q9 Advanced (UVITec). […]
We generated a BRD4-ULKTAC (NZ-147) by conjugating (+)-JQ1 (BRD4-targeting moiety) to NZ-60 via a PEG linker (FIG. 8A). CAL51 cells (a triple negative breast cancer cell line) were treated with DMSO, (+)-JQ1 or NZ-147 at 100 nM for 72 hours then lysed and analysed by Western blot (FIG. 8B). […]

[2] = system: H1299 cells; assay: Colony formation assay, H1299
Procedure: (§1) A549 and H1299 cells were seeded in 12 well plates at approximately 100 cells per well. In Example 8, wells were treated with DMSO, (+)-JQ1 or NZ-147. In Example 9, cells were treated with DMSO or NZ-175. Colonies were allowed to form over 120 h. Cells were fixed and stained with crystal violet staining solution, prepared in 70% ethanol.
(§2) A colony formation assay was performed in A549 and H1299 cells, which were treated with DMSO, (+)-JQ1 or NZ-147 at 100 nM for 72 hours and stained with crystal violet (FIG. 10A).
(§3) A colony formation assay was performed in A549 and H1299 cells, which were treated with DMSO or NZ-175 at 100 nM for 72 hours and stained with crystal violet (FIG. 16A).

[3] = system: H1299 cells; assay: Cell viability assay (CellTiter Glo), H1299; details: H1299, increasing concentrations
Procedure: A549 and H1299 cells were seeded in OptiPlate-384 well plates and treated with increasing concentrations of (+)-JQ1 or NZ-147 from 0 μM to 10 µM in Example 8 and with increasing concentrations of NZ-175 from 0 µM to 10 µM in Example 9. Cells were treated for 120 h before using the luciferase based CellTiter Glo assay (Promega) to measure cell viability.
Cell viability assay was performed in A549 and H1299 cells, which were treated with different concentrations of (+)-JQ1 or NZ-147 at 100 nM for 72 hours (FIG. 10B).
Cell viability assay was performed in A549 and H1299 cells, which were treated with different concentrations of NZ-147 at 100 nM for 72 hours (FIG. 16B).

[4] = system: A549 cells; assay: Colony formation assay, A549; details: A549, 100 nM, 72 hours
Procedure: as §1, §2, §3

For `Cc1sc2c(c1C)C(c1ccc(Cl)cc1)=N[C@@H](CC(=O)NCCOCCOCCOCCn1cc(COc3ccc([C@@H](NC(=O)Nc4cc(C(F)(F)F)cc(C(F)(F)F)c4)C(=O)Nc4ccc(F)cc4F)cc3)nn1)c1nnc(C)n1-2` [NZ-147, (R)-2-(3-(3,5-bis(trifluoromethyl)phenyl)ureido)-2-(4-((1-(1-((S)-4-(4-chlorophenyl)-2,3,9-trimethyl-6H-thieno[3,2-f][1,2,4]triazolo[4,3-a][1,4]diazepin-6-yl)-2-oxo-6,9, 12-trioxa-3-azatetradecan-14-yl)-1H-1,2,3-triazol-4-yl)methoxy)phenyl)-N-(2,4-difluorophenyl) acetamide], the “levels of MAX” value [1] was “reduced”, the colony formation ([2]; H1299, 100 nM, 72 hours) was “Fewest colonies formed” and the cell proliferation ([2]; c-MYC-amplified cell line H1299) was “reduced cell proliferation, exemplified further in the c-MYC-amplified cell line H1299”. The “percentage of live cells” value [3] was “dose-dependent decrease in the percentage of live cells” and the colony formation [4] was “Fewest colonies formed”.
